Drawing on patent publication US12590062B2, “PD-1/PD-L1 inhibitors” (Gilead Sciences, Inc., priority 2017, dated 2026), this text covers AC50, EC50 and IC50 for 23 compounds.

One experiment deals with T1, PD-L1 (Homo sapiens, UniProt Q9NZQ7).
T1 construct: determine if they can specifically dimerize the extracellular domains of PD-L1
Put plainly: PD-L1/PD-L1 dimerization biochemical protein-protein interaction assay (ALPHA). The class given is binding. The settings on record: compound-induced PD-L1 dimerization, head prints '1 nM' (0.5 nM His-tagged PD-L1 and 0.5 nM FLAG-tagged PD-L1), read-out: AC50 PDL1 Dimer Alpha 1 nM. In a few lines:
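After 2 h at 25 °C with compound, His- and FLAG-tagged PD-L1 ECDs (each 0.5 nM final; 25 mM Hepes pH 7.4, 150 mM NaCl) were detected by sequential anti-His acceptor and anti-FLAG donor bead incubations. Dose-response curves fitted to four-parameter equation for AC50.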

In the next experiment the target is T2, PD-1/PD-L1 interaction (Homo sapiens, UniProt Q9NZQ7).
T2 construct: expressed in transfected cells; host or cells: CHO cells (aAPC-PD-L1) co-cultured with Jurkat cells overexpressing PD-1 and an NFAT-luciferase reporter
T2 sequence (Q9NZQ7 19-290): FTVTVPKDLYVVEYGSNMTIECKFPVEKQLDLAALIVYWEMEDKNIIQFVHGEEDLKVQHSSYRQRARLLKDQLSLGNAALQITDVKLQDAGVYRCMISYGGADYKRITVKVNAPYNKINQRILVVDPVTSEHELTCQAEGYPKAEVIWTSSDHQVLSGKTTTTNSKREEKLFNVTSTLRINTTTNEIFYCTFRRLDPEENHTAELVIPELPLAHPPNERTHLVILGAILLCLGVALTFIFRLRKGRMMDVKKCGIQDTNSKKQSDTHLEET
Briefly: PD-1/PD-L1 NFAT reporter co-culture assay. It is filed as cell-based. Particulars: Jurkat PD-1 NFAT-luciferase cells co-cultured with aAPC-PD-L1 CHO cells, 6 hrs at 37° C.; read-out: EC50 NFAT Luciferase. The essentials: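 Jurkat cells overexpressing PD-1 with NFAT-driven luciferase were mixed with compound in RPMI 1640/2% FBS and seeded onto overnight-plated CHO aAPC-PD-L1 cells expressing surface anti-CD3 and PD-L1. Co-culture ran 6 h at 37 °C; luminescence read with ONE-Glo; EC50 from four-parameter fit.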

A further experiment concerns the target PD-1/PD-L1 (Homo sapiens, UniProt Q9NZQ7). Briefly: PD-1/PD-L1 biochemical protein-protein interaction assay (ALPHA). It is filed as binding. Particulars: 0.3 nM His tagged PD-L1, 2.5 nM biotinylated Fc-PD-1, 60 minutes at 25° C., read-out: IC50 PD-L1-PD-1 Alpha IC50-mono PD-L1-fcP-D1. The essentials: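 IC50 values derive from four-parameter fits of ALPHA signal decrease. Assay: 0.3 nM His-tagged PD-L1 with 2.5 nM biotinylated Fc-PD-1, Hepes pH 7.4 with 0.005% Tween 20 and 0.01% BSA, 60 min at 25° C, then anti-His acceptor and streptavidin donor beads.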

T1 sequence (Q9NZQ7 19-238 limits assumed): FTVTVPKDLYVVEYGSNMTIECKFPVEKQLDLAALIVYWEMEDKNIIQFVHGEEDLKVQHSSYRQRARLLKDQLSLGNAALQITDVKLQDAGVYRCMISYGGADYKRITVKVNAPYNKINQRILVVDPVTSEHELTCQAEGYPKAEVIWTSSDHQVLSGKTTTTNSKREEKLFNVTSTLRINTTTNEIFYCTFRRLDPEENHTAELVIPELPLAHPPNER
T1 sequence (Q9NZQ7 19-238 limits assumed): as above
Sequence of PD-1/PD-L1 (Q9NZQ7 19-238 limits assumed): as above

The term AC50 denotes the concentration giving half of the maximal activity seen. The term EC50 denotes the midpoint of the concentration-response curve. Broadly, the IC50 is the midpoint of a concentration-inhibition curve. As for `Cc1c(COc2cc(OCc3cncc(C#N)c3)c(CNC(C)(CO)C(=O)O)cc2Cl)cccc1-c1cccc(-c2ccc(CN3CCC4(CNC(=O)C4)C3)cc2)c1C` (stereo not drawn) [Example 444], the AC50 on PD-L1 is 133 nM. Further, the EC50 on PD-1/PD-L1 interaction was determined as 296 nM. Besides, the IC50 at PD-1/PD-L1 came out at 0.064 nM.
Taken in the same sequence, the figures for `N#Cc1cncc(COc2nc(O[C@H]3CCc4c(-c5cccc(-c6ccc(OCCNCCO)cc6)c5Cl)cccc43)c(Br)cc2CNC[C@@H](O)CC(=O)O)c1` [Example 662] were 14.5 nM, 83 nM and 0.139 nM.
Taken in the same sequence, the figures for `Cc1c(COc2cc(OCc3cncc(C#N)c3)c(CN[C@@](C)(CO)C(=O)O)cc2Cl)cccc1-c1cccc(-c2ccc(CNCCS(C)(=O)=O)cc2)c1C` [Example 571] were 156 nM, 126 nM and 0.091 nM.
For the compound `Cc1c(COc2cc(OCc3cncc(C#N)c3)c(CN3CC[C@@H](O)C3)cc2Cl)cccc1-c1cccc(-c2ccc(OCCNC[C@@H](O)CC(=O)O)cc2)c1C` [Example 309, (S)-4-((2-((3″-((2-chloro-5-((5-cyanopyridin-3-yl)methoxy)-4-(((R)-3-hydroxypyrrolidin-1-yl)methyl)phenoxy)methyl)-2′,2″-dimethyl-[1,1′:3′,1″-terphenyl]-4-yl)oxy)ethyl)amino)-3-hydroxybutanoic acid], the AC50 on PD-L1 was determined as 103 nM. On PD-1/PD-L1 interaction, the EC50 was determined as 240 nM. The IC50 at PD-1/PD-L1 stood at 0.168 nM.
The like results for `CC(C)(NCc1cc(Cl)c(O[C@H]2CCc3c(-c4cccc(-c5ccc(S(N)(=O)=O)cc5)c4Cl)cccc32)nc1OCc1cncc(C#N)c1)C(=O)O` [Example 289, (S)-2-(((5-chloro-6-((4-(2-chloro-4′-sulfamoyl-[1,1′-biphenyl]-3-yl)-2,3-dihydro-1H-inden-1-yl)oxy)-2-((5-cyanopyridin-3-yl)methoxy)pyridin-3-yl)methyl)amino)-2-methylpropanoic acid] were, in that order, at least 10000 nM, 70 nM and 0.075 nM.
The like results for `COc1nc(-c2cccc(-c3cccc(-c4nc5cc(CNCCO)cc(OC)c5o4)c3Cl)c2Cl)ccc1CNCCO` [Example 634] were, in that order, 96.9 nM, 495 nM and 0.208 nM.
Turning to `COc1nc(-c2cccc(-c3cccc(N4Cc5cc(CNC[C@@H]6CCC(=O)N6)ccc5C4=O)c3Cl)c2Cl)ccc1CNC[C@@H]1CCC(=O)N1` [Example 632], the AC50 at PD-L1 stood at 314 nM. Also, the EC50 on PD-1/PD-L1 interaction is 2980 nM. Besides, the IC50 on PD-1/PD-L1 was found to be 0.147 nM.
The like results for `COc1nc(O[C@H]2CCc3c(-c4cccc(-c5cnc(CNC[C@@H]6CCC(=O)N6)c(OC)n5)c4Cl)cccc32)c(Cl)cc1CN[C@@H]1CCC[C@@H]1O` [Example 642] were, in that order, 67.2 nM, 194 nM and 2.36 nM.
As to `Cc1c(COc2cc(OCc3cncc(C#N)c3)c(CN[C@@H]3CCC[C@@H]3O)cc2Cl)cccc1-c1cccc(-c2ccc3c(c2)CCC3N2CC3(CC(C(=O)O)C3)C2)c1C` (stereo partly drawn) [Example 583], the AC50 on PD-L1 was found to be 38.3 nM. Also, the EC50 at PD-1/PD-L1 interaction is 180 nM. Further, on PD-1/PD-L1, the IC50 was found to be 0.296 nM.
With `COc1nc(-c2cccc(-c3cccc(N4Cc5cc(CN6CC7(C6)CN(C(C)=O)C7)ccc5C4=O)c3Cl)c2Cl)ccc1CN1CC2(C1)CN(C(C)=O)C2` [Example 599, 5-((6-acetyl-2,6-diazaspiro[3.3]heptan-2-yl)methyl)-2-(3′-(5-((6-acetyl-2,6-diazaspiro[3.3]heptan-2-yl)methyl)-6-methoxypyridin-2-yl)-2,2′-dichloro-[1,1′-biphenyl]-3-yl)isoindolin-1-one], the AC50 at PD-L1 stood at 7930 nM. Also, the EC50 on PD-1/PD-L1 interaction is at least 50000 nM. Also, the IC50 at PD-1/PD-L1 was found to be 0.214 nM.
Consider `Cc1c(COc2cc(OCc3cncc(C#N)c3)c(CN[C@@](C)(CO)C(=O)O)cc2Cl)cccc1-c1cccc(-c2ccc(OCCN3CC4(CCC(=O)N4)C3)cc2)c1C` [Example 520], for which, at PD-L1, the AC50 came to 57.5 nM. The 50% effective concentration (EC50) on PD-1/PD-L1 interaction was determined as 97 nM. Besides, at PD-1/PD-L1, the IC50 stood at 0.064 nM.
Taken in the same sequence, the figures for `Cc1c(COc2cc(OCc3cncc(C#N)c3)c(CNC[C@@H](O)CC(=O)O)cc2Cl)cccc1-c1cccc(-c2ccc(CN[C@H]3CCCNC3=O)cc2)c1C` [Example 572] were 453 nM, 129 nM and 0.431 nM.
Taken in the same sequence, the figures for `N#Cc1cncc(COc2nc(O[C@H]3CCc4c(-c5cccc(-c6nc7ccc(CNC[C@@H](O)CC(=O)O)cn7n6)c5Cl)cccc43)c(Cl)cc2CNC[C@@H](O)CC(=O)O)c1` [Example 803] were 11.7 nM, 49 nM and 0.064 nM.
Consider `COc1nc(-c2cccc(-c3cccc4c3CC[C@@H]4Oc3nc(OC)c(CN[C@@H]4CCC[C@@H]4O)cc3Cl)c2Cl)ccc1CN[C@@H]1CCC[C@@H]1O` [Example 646], for which the AC50 at PD-L1 came to 73.2 nM. The EC50 at PD-1/PD-L1 interaction was 145 nM. For the same compound, the IC50 on PD-1/PD-L1 stood at 6.25 nM.
Consider `C[C@@](CO)(NCc1cc(Br)c(OCc2cccc(-c3cccc(-c4ccc5c(c4)C[C@@H](N)C5)c3Cl)c2Cl)nc1OCc1cncc(C#N)c1)C(=O)O` [Example 554], for which the concentration at half-maximal activity (AC50) on PD-L1 turned out to be 39.5 nM. For the same compound, the EC50 at PD-1/PD-L1 interaction is 148 nM. Moreover, the IC50 on PD-1/PD-L1 stood at 0.15 nM.
Taken in the same sequence, the figures for `Cc1c(COc2cc(OCc3cncc(C#N)c3)c(CN[C@@](C)(CO)C(=O)O)cc2Cl)cccc1-c1cccc(-c2ccc(CN[C@H]3CCCNC3=O)cc2)c1C` [Example 573] were 215 nM, 120 nM and 0.154 nM.
Taken in the same sequence, the figures for `COc1nc(O[C@H]2CCc3c(-c4cccc(-c5nc6cc(CNCCO)ccn6n5)c4Cl)cccc32)c(Cl)cc1CNCCO` [Example 638, (S)-2-(((2-(2-chloro-3-(1-((3-chloro-5-(((2-hydroxyethyl)amino)methyl)-6-methoxypyridin-2-yl)oxy)-2,3-dihydro-1H-inden-4-yl)phenyl)-[1,2,4]triazolo[1,5-a]pyridin-7-yl)methyl)amino)ethan-1-ol] were 23.8 nM, 429 nM and 0.064 nM.
Taken in the same sequence, the figures for `Cc1c(COc2cc(OCc3cncc(C#N)c3)c(CN[C@](C)(CO)C(=O)O)cc2Cl)cccc1-c1cccc(-c2ccc(OCCNCCO)c(S(C)(=O)=O)c2)c1C` [Example 310, (R)-2-((5-chloro-2-((5-cyanopyridin-3-yl)methoxy)-4-((4″-(2-((2-hydroxyethyl)amino)ethoxy)-2,2′-dimethyl-3″-(methylsulfonyl)-[1,1′:3′,1″-terphenyl]-3-yl)methoxy)benzyl)amino)-3-hydroxy-2-methylpropanoic acid] were 121 nM, 215 nM and 0.069 nM.
For `COc1nc(O[C@H]2CCc3c(-c4cccc(-c5ccc(C6=N[C@H](C)CN6)c(OC)n5)c4Cl)cccc32)c(Br)cc1CN[C@@](C)(CO)C(=O)O` [Example 782], the AC50 on PD-L1 worked out at 23.1 nM. The EC50 on PD-1/PD-L1 interaction stood at 38 nM. In addition, the IC50 on PD-1/PD-L1 is 0.064 nM.
The like results for `N#CCOc1cc(-c2cccc(-c3cccc(-c4ccc(CNC[C@@H]5CCC(=O)N5)c(OCC#N)c4)c3Cl)c2Cl)ccc1CNC[C@@H]1CCC(=O)N1` [Example 463] were, in that order, 71.3 nM, 123 nM and 0.159 nM.
Turning to `COc1cc(COc2cccc(-c3cccc(COc4cc(OCc5cncc(C#N)c5)c(CNC[C@@H](O)CC(=O)O)cc4Cl)c3C)c2C)c(Cl)cc1CNC[C@@H](O)CC(=O)O` [Example 389, (S)-4-((4-(((3′-((4-((((S)-3-carboxy-2-hydroxypropyl)amino)methyl)-2-chloro-5-((5-cyanopyridin-3-yl)methoxy)phenoxy)methyl)-2,2′-dimethyl-[1,1′-biphenyl]-3-yl)oxy)methyl)-5-chloro-2-methoxybenzyl)amino)-3-hydroxybutanoic acid], on PD-L1, the AC50 came out at 120 nM. The EC50 at PD-1/PD-L1 interaction amounted to 306 nM. Besides, at PD-1/PD-L1, the IC50 was found to be 0.374 nM.
On to `CNCc1cccc(-c2cccc(-c3cccc(COc4cc(OCc5cncc(C#N)c5)c(CN[C@@](C)(CO)C(=O)O)cc4Cl)c3C)c2C)c1` [Example 358, (S)-2-((5-chloro-2-((5-cyanopyridin-3-yl)methoxy)-4-((2,2′-dimethyl-3″-((methylamino)methyl)-[1,1′:3′,1″-terphenyl]-3-yl)methoxy)benzyl)amino)-3-hydroxy-2-methylpropanoic acid], for which the concentration at half-maximal activity (AC50) on PD-L1 came out at 100 nM. The EC50 on PD-1/PD-L1 interaction was found to be 2090 nM. Moreover, at PD-1/PD-L1, the IC50 is 0.137 nM.
The like results for `C[C@@](CO)(NCc1cc(Cl)c(OCc2cccc(-c3cccc(COc4cc(OCc5cncc(C#N)c5)c(CN[C@@](C)(CO)C(=O)O)cc4Cl)c3Br)c2Br)cc1OCc1cncc(C#N)c1)C(=O)O` [Example 478] were, in that order, 268 nM, 48 nM and 0.064 nM.
